The source of these data is patent US12173188B2, “Ultraviolet absorbing agent, ultraviolet absorbing composition, ultraviolet absorbing film, laminate, and novel compound” (FUJIFILM CORPORATION, priority 2019, dated 2024).

A short description of data set [1]: Moist heat resistance test of laminate (60° C., 90% RH, 160 hours). The data set is classed as physicochemical. As to conditions: for Haze after moist heating: after 160 hours at 60° C.; for Haze after moist heating / Moist heat resistance: 90% RH; for Moist heat resistance: change in transmittance at 380 nm after 160 hours at 60° C. As for the experimental part: The moist heat test was carried out with a constant temperature and humidity device (IG420, manufactured by Yamato Scientific Co., Ltd.) under the conditions of a temperature of 60° C. and a humidity of 90% RH. The transmittance at 380 nm after the lapse of 160 hours was measured by the above method. The width of change in transmittance at a wavelength of 380 nm before and after the moist heat resistance test was calculated, and the moist heat resistance was evaluated as “particularly good” in a case where the width of change was less than 5%, the moist heat resistance was evaluated as “good” in a case where the width of change was 5% or more and less than 10%, and the moist heat resistance was evaluated as “bad” in a case where the width of change was 10% or more.
The haze after the moist heat resistance test was measured by the same method as in (2. Initial haze) described above.

Data set [2] in a line: Light fastness of laminate, metal halide lamp irradiation. Conditions: change in transmittance at 380 nm after 60 hours metal halide lamp, 90 mW/cm^2, 63° C., 50% RH. The format is physicochemical. As for the experimental part: First, the transmittance of the obtained laminate of the glass plate and the ultraviolet absorbing film at a wavelength of 380 nm was measured using a spectrophotometer (model number: UV 3150) manufactured by Shimadzu Corporation.
Next, using a super-accelerated weather fastness tester [product name: EYE SUPER UV Tester, IWASAKI ELECTRIC Co., Ltd.], the obtained laminate of the glass plate and the ultraviolet absorbing film was irradiated with light (about 290 nm […]) of a metal halide lamp for 60 hours under the conditions of an illuminance of 90 mW/cm^2 ([…]), a temperature of 63° C., and a relative humidity of 50%.
After light irradiation, the transmittance of the obtained laminate of the glass plate and the ultraviolet absorbing film at a wavelength of 380 nm was measured in the same manner as described above using a spectrophotometer (model number: UV 3150) manufactured by Shimadzu Corporation.
The width of change in transmittance at a wavelength of 380 nm before and after the light irradiation was calculated, and the light fastness was evaluated as “particularly good” in a case where the width of change was less than 5%, the light fastness was evaluated as “good” in a case where the width of change was 5% or more and less than 10%, and the light fastness was evaluated as “bad” in a case where the width of change was 10% or more.

The nature of data set [3]: Solubility in distilled water at 25° C. Conditions: 24 hours standing.
Experimental: The solubility of the specific ultraviolet absorbing agent in water in the present disclosure can be measured by the following method from the amount of the specific ultraviolet absorbing agent dissolved in 10 g of distilled water at 25° C.
After mixing 10 g of distilled water with 1 g of the specific ultraviolet absorbing agent, the resultant mixture is irradiated with ultrasonic waves at a liquid temperature of 25° C. for 15 minutes and then allowed to stand for 24 hours while the liquid temperature is maintained at 25° C. For ultrasonic irradiation, a desktop ultrasonic cleaner 1510, manufactured by Branson Ultrasonics, Emerson Japan, Ltd. is used.
After being allowed to stand for 24 hours, filtration is carried out through a membrane filter (0.1 μm mesh, manufactured by [sequence] Co., Ltd.). The unfiltered specific ultraviolet absorbing agent is collected, dried, and then weighed. The amount of the unfiltered specific ultraviolet absorbing agent is subtracted from 1 g of the specific ultraviolet absorbing agent to obtain an amount of the specific ultraviolet absorbing agent dissolved in water, and the solubility of the specific ultraviolet absorbing agent in water is calculated from that the obtained amount value.
The nature of data set [4]: Molar absorption coefficient in pure water. As to conditions: 1.0 mg in 100 mL pure water, 1 cm cell, at maximum absorption wavelength; in L/(mol·cm) (unit assumed). The format is physicochemical. As for the experimental part: After dissolving 1.0 mg of a sample in 100 mL of pure water, the absorbance of the aqueous solution was measured in a 1 cm cell using a spectrophotometer (model number: UV 3150) manufactured by Shimadzu Corporation. From the measurement results, the molar absorption coefficient was calculated from the value of the absorbance at the maximum absorption wavelength using the Lambert-Beer law.

Data set [5] in a line: Maximum absorption wavelength by spectrophotometer. The data set is classed as physicochemical. Conditions: H2O. As for the experimental part: The maximum absorption wavelength of the ultraviolet absorbing agent can be measured, for example, using a spectrophotometer. Examples of the device include a spectrophotometer UV3600 and an ultraviolet-visible-near infrared spectrophotometer UV 3150, manufactured by Shimadzu Corporation. In the present disclosure, the maximum absorption wavelength of the ultraviolet absorbing agent is measured using a spectrophotometer UV3600.
The measurement is carried out at room temperature (25° C.), and the absorbance is measured using a spectrophotometer to obtain an absorption spectrum while air is referenced as a control as the measurement condition.
In a case where an absorbance at a wavelength in a predetermined wavelength range is measured, the maximum absorption wavelength, the transmittance, and the like can be calculated.

Setting [6] is: 5.0 parts agent/45.0 parts PVA film.
Setting [7] is: 2.0 parts agent/98.0 parts PVA film.

With `O=C(c1ccc(O)cc1O)c1ccc(O)cc1O` [Compound H-1, reference compound], in data set [1] (setting [6]), the Haze after moist heating is 6.1% and the Moist heat resistance entry is listed as “Bad (the width of change was 10% or more)”. The Light fastness result in data set [2] (setting [6]) is “Bad (the width of change was 10% or more)”.

Turning to `O=S(=O)([O-])CCNc1nc(NCCS(=O)(=O)[O-])nc(Nc2ccc(C=Cc3ccc(Nc4nc(NCCS(=O)(=O)[O-])nc(NCCS(=O)(=O)[O-])n4)cc3S(=O)(=O)[O-])c(S(=O)(=O)[O-])c2)n1.[Na+].[Na+].[Na+].[Na+].[Na+].[Na+]` [Compound H-3, reference compound], in data set [1] (setting [6]), the Haze after moist heating is 9.5% and the Moist heat resistance result was “Bad (the width of change was 10% or more)”. Also, the Light fastness entry in data set [2] (setting [6]) is “Bad (the width of change was 10% or more)”.

`CCCCN1C(=O)C(=C2Sc3c(OCCCCS(=O)(=O)[O-])c4c(c(OCCCCS(=O)(=O)[O-])c3S2)SC(=C2C(=O)N(CCCC)N(CCCC)C2=O)S4)C(=O)N1CCCC.[Na+].[Na+]` [Compound H-4, reference compound]: in data set [1] (setting [6]), the Haze after moist heating is 18% and the Moist heat resistance result is given as “Bad (the width of change was 10% or more)”. Moreover, the “haze after the moist heat resistance test” value in data set [1] (in words, summary of Table 1) is on record as “significantly increased”. In addition, the Light fastness result in data set [2] (setting [6]) is “Good (the width of change was 5% or more and less than 10%)”.

Consider `CCCCC(CC)COc1ccc(OCC(CC)CCCC)c2c1SC(=C1C(=O)N(CCCC)N(CCCC)C1=O)S2` (centres unmarked) [Compound H-5, reference compound], for which, in data set [1] (setting [6]), the Haze after moist heating stood at 68% and the Moist heat resistance result is listed as “Bad (the width of change was 10% or more)”. The Light fastness result in data set [2] (setting [6]) is “Bad (the width of change was 10% or more)”.

For `CC(C)(C)C(=O)C(C#N)=C1Sc2c(OCCCCS(=O)(=O)[O-])ccc(OCCCCS(=O)(=O)[O-])c2S1.[Na+].[Na+]` [Compound M-1], the “Solubility (25° C.)” value in data set [3] worked out at 3.2 % by mass.

For `N#CC(C(=O)c1ccccc1)=C1Sc2c(OCCCS(=O)(=O)[O-])ccc(OCCCS(=O)(=O)[O-])c2S1.[Na+].[Na+]` [Compound M-2], in data set [3], the “Solubility (25° C.)” value is reported as 2.9 % by mass.

In the case of `N#CC(C#N)=C1Sc2c(OCCCCS(=O)(=O)[O-])ccc(OCCCCS(=O)(=O)[O-])c2S1.[Na+].[Na+]` [Compound M-3], the “Solubility (25° C.)” value in data set [3] is on record as 3.1 % by mass. The Haze after moist heating in data set [1] (setting [7]) came to 0.1%; in data set [1] (setting [6]) it was 0.24%. For the same molecule, the Moist heat resistance entry in data set [1] (setting [7]) and in data set [1] (setting [6]) was “Particularly good (the width of change was less than 5%)” throughout. In data set [4], the Molar absorption coefficient was 28,100. In addition, the Light fastness result in data set [2] (setting [7]) and in data set [2] (setting [6]) was “Particularly good (the width of change was less than 5%)” throughout. The Maximum absorption wavelength in data set [5] turned out to be 372 nm.

As for `CON=CC(C#N)=C1Sc2c(OCCCCS(=O)(=O)[O-])ccc(OCCCCS(=O)(=O)[O-])c2S1.[Na+].[Na+]` [Compound M-5], in data set [3], the “Solubility (25° C.)” value was found to be 3.1 % by mass. In data set [1] (setting [6]), the Haze after moist heating came to 0.28% and the Moist heat resistance entry is “Particularly good (the width of change was less than 5%)”. Also, the Molar absorption coefficient in data set [4] is given as 27,400. For the same molecule, in data set [2] (setting [6]), the Light fastness entry is reported as “Particularly good (the width of change was less than 5%)”. In data set [5], the Maximum absorption wavelength turned out to be 390 nm.

As for `N#CC(C#N)=C1Sc2c(OCCCCP(=O)(O)O)ccc(OCCCCP(=O)(O)O)c2S1` [Compound M-7], the “Solubility (25° C.)” value in data set [3] was found to be 2.0 % by mass.

As for `N#CC(C#N)=C1Sc2c(OC(=O)CCC(=O)[O-])ccc(OC(=O)CCC(=O)[O-])c2S1.[Na+].[Na+]` [Compound M-8], the “Solubility (25° C.)” value in data set [3] came out at 2.6 % by mass. Moreover, the Haze after moist heating came out at 0.3% in data set [1] (setting [7]) and 0.4% in data set [1] (setting [6]). Further, the Moist heat resistance result is “Particularly good (the width of change was less than 5%)” in data set [1] (setting [7]); “Good (the width of change was 5% or more and less than 10%)” in data set [1] (setting [6]). Further, the Light fastness entry in data set [2] (setting [7]) and in data set [2] (setting [6]) was “Particularly good (the width of change was less than 5%)” throughout.

Consider `CCCCOc1ccc(OCCCC)c2c1SC(=C(C#N)C(=O)OCCCCS(=O)(=O)[O-])S2.[Na+]` [Compound M-9], for which, in data set [3], the “Solubility (25° C.)” value was determined as 2.1 % by mass.

Turning to `CCCCOc1ccc(OCCCC)c2c1SC(=C(C#N)C(=O)OCCCCP(=O)(O)O)S2` [Compound M-10], the “Solubility (25° C.)” value in data set [3] worked out at 1.9 % by mass.

As to `CCCCN1C(=O)C(=C2Sc3c(OCCCCS(=O)(=O)[O-])ccc(OCCCCS(=O)(=O)[O-])c3S2)C(=O)N1CCCC.[Na+].[Na+]` [Compound M-11], the Haze after moist heating in data set [1] (setting [7]) was determined as 0.1%; in data set [1] (setting [6]), 0.26%. Further, the Moist heat resistance entry in data set [1] (setting [7]) and in data set [1] (setting [6]) was “Particularly good (the width of change was less than 5%)” in each case. Besides, the Molar absorption coefficient in data set [4] is 35,900. The Light fastness entry in data set [2] (setting [7]) and in data set [2] (setting [6]) was “Particularly good (the width of change was less than 5%)” throughout. In data set [5], this molecule came in with a Maximum absorption wavelength of 387 nm.

As for `CCCCN1C(=O)C(=C2Sc3c(OCCCS(=O)(=O)[O-])ccc(OCCCS(=O)(=O)[O-])c3S2)C(=O)N1CCCC.[Na+].[Na+]` [Compound M-12], the “Solubility (25° C.)” value in data set [3] is 3.6 % by mass.

Consider `O=C1C(=C2Sc3c(OCCCCS(=O)(=O)[O-])ccc(OCCCCS(=O)(=O)[O-])c3S2)C(=O)N(c2ccccc2)N1c1ccccc1.[Na+].[Na+]` [Compound M-13], for which the “Solubility (25° C.)” value in data set [3] is listed as 3.3 % by mass.

Turning to `CCCCOc1ccc(OCCCCS(=O)(=O)[O-])c2c1SC(=C1C(=O)N(CCCCS(=O)(=O)[O-])N(CCCCS(=O)(=O)[O-])C1=O)S2.[Na+].[Na+].[Na+]` [Compound M-14], in data set [3], the “Solubility (25° C.)” value is given as 3.7 % by mass.

Take `CCCCC(CC)COc1ccc(OCC(CC)CCCC)c2c1SC(=C1C(=O)N(CCCCS(=O)(=O)[O-])N(CCCCS(=O)(=O)[O-])C1=O)S2.[Na+].[Na+]` (centres unmarked) [Compound M-15]: in data set [3], the “Solubility (25° C.)” value is listed as 2.9 % by mass.

For `O=C1C(=C2Sc3c(OCCS(=O)(=O)[O-])ccc(OCCS(=O)(=O)[O-])c3S2)C(=O)N(CCCS(=O)(=O)[O-])N1CCCS(=O)(=O)[O-].[Na+].[Na+].[Na+].[Na+]` [Compound M-16], in data set [3], the “Solubility (25° C.)” value came to 2.9 % by mass.

On to `CCCCN1C(=O)C(=C2Sc3c(OCCCCP(=O)(O)O)ccc(OCCCCP(=O)(O)O)c3S2)C(=O)N1CCCC` [Compound M-17], for which the “Solubility (25° C.)” value in data set [3] stood at 3.0 % by mass.

Regarding `CCCCOc1ccc(OCCCC)c2c1SC(=C1C(=O)N(CCCCP(=O)(O)O)N(CCCCP(=O)(O)O)C1=O)S2` [Compound M-19], the “Solubility (25° C.)” value in data set [3] is on record as 3.0 % by mass.

As to `CCCCOc1ccc(OCCCC)c2c1SC(=C1C(=O)N(CCCCC(=O)[O-])N(CCCCC(=O)[O-])C1=O)S2.[Na+].[Na+]` [Compound M-20], the “Solubility (25° C.)” value in data set [3] stood at 2.9 % by mass.
